Consider 1 compound from ChEMBL document CHEMBL4420076, “Amylin and calcitonin receptor agonist” (2017).

The solubility is how much of the substance goes into solution per volume. As usually defined, the EC50 is the concentration giving half of the maximal effect. The half-life is the time needed for the level to fall by half in the phase considered. The IC50 is the concentration that inhibits the measured activity by half.

Peptide text beside a SMILES is read from it. * marks the point of attachment. C18 diacid = O=C(O)CCCCCCCCCCCCCCCCC(=O)* Some results are limits rather than exact numbers.

The nature of data set [1]: Solubility in 100 mM bistrispropane buffer at pH 6.5 incubated for 18 hrs by UPLC analysis. The class given is physicochemical.
Data set [2] is described as follows: Solubility in 100 mM bistrispropane buffer at pH 7.0 incubated for 18 hrs by UPLC analysis. Type of data set: physicochemical.
The test system of data set [3] is Rattus norvegicus. The data set is described as follows: Reduction in body weight in Sprague-Dawley rat model of diet-induced obesity assessed as relative body weight at 3.7 ug/kg, sc dosed dosed once daily and co-treated with 0.1 mg/kg, sc liraglutide during 0 to 28 days and measured on day 28 relative to initial body weight (reference value: 98.8 +/- 0.8%). Also on record: scale not given: the % may be the effect or the level left. The class given is functional.

Data set [4] is described as follows: Solubility in 100 mM glycylglycine buffer at pH 5.0 incubated for 18 hrs by UPLC analysis. Type of data set: physicochemical.
Data set [5] deals with Rattus norvegicus. The data set is described as follows: Reduction in food intake in Sprague-Dawley rat at 3 nmol/kg measured 24 to 48 hrs post dose relative to control. The class given is functional. Set-up: scale not given: the % may be the effect or the level left.
In data set [6] the test system is Rattus norvegicus. As to the kind of experiment: Reduction in body weight in Sprague-Dawley rat model of diet-induced obesity assessed as relative body weight at 3.7 ug/kg, sc dosed dosed once daily during 0 to 28 days and measured on day 28 relative to initial body weight (reference value: 99.8 +.- 1.1%). Type of data set: functional. Also on record: scale not given: the % may be the effect or the level left.

In data set [7] the test system is Rattus norvegicus. As to the kind of experiment: Reduction in body weight in Sprague-Dawley rat model of diet-induced obesity assessed as relative body weight at 3.7 ug/kg, sc dosed dosed once daily and co-treated with 0.1 mg/kg, sc liraglutide during 0 to 15 days and measured on day 15 relative to initial body weight (reference value: 98.8 +/- 0.8%). The class given is functional. Set-up: scale not given: the % may be the effect or the level left.

A further data set deals with T1, Calcitonin receptor (Homo sapiens, UniProt P30988).
T1 sequence (P30988 whole entry): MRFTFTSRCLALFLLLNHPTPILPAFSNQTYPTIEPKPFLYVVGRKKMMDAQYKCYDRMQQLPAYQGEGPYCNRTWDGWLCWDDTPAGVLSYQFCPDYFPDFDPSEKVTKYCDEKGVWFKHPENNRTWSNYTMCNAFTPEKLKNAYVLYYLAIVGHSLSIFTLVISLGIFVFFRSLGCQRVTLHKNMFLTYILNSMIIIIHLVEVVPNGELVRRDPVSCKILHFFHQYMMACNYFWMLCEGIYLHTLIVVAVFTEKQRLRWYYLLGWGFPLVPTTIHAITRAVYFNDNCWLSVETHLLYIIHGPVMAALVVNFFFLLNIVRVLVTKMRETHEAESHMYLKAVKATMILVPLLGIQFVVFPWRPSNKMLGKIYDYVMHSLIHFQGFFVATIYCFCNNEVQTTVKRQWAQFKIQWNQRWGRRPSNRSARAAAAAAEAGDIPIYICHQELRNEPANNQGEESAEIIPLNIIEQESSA
As to the kind of experiment: Agonist activity at human calcitonin receptor expressed in BHK570 cells assessed as increase in intracellular cAMP concentration incubated for 3 hrs in absence of albumin by CRE luciferase reporter gene assay. Type of data set: functional, cell-based. (In a reporter assay the amount or activity of a reporter protein is the signal.)

Data set [8] in a line: Half life in LYD pig at 1.6 mM, sc co-dosed with 1.6 mM liraglutide by LC-MS analysis. The note with it: in vivo. The class given is ADME, organism-based, Sus scrofa.
In data set [9] the test system is Rattus norvegicus. The data set is described as follows: Reduction in body weight in Sprague-Dawley rat model of diet-induced obesity assessed as relative body weight at 3.7 ug/kg, sc dosed dosed once daily during 0 to 15 days and measured on day 15 relative to initial body weight (reference value: 98.8 +/- 0.8%). Type of data set: functional. Also on record: scale not given: the % may be the effect or the level left.

The nature of data set [10]: Solubility in 100 mM bistrispropane buffer at pH 8.0 incubated for 18 hrs by UPLC analysis. The class given is physicochemical.
The nature of data set [11]: Half life in LYD pig at 1.6 mM, sc co-formulated with 1.6 mM liraglutide by LC-MS analysis. Type of data set: ADME, organism-based, Sus scrofa. As to conditions: in vivo.
Data set [12] in a line: Dose normalized AUC in LYD pig at 1.6 mM, sc co-dosed with 1.6 mM liraglutide by LC-MS analysis. Type of data set: ADME, organism-based, Sus scrofa. The note with it: in vivo, 1600 µM.
Data set [13] in a line: Solubility in 100 mM glycylglycine buffer at pH 3.0 incubated for 18 hrs by UPLC analysis. Type of data set: physicochemical.
A short description of data set [14]: Solubility in 100 mM bistrispropane buffer at pH 7.5 incubated for 18 hrs by UPLC analysis. Type of data set: physicochemical.
Data set [15] can be described thus: Dose normalized AUC in LYD pig at 1.6 mM, sc co-formulated with 1.6 mM liraglutide by LC-MS analysis. Type of data set: ADME, organism-based, Sus scrofa. As to conditions: in vivo, 1600 µM.
Data set [16] deals with T2, Amylin receptor AMY3; CALCR/RAMP3 (Homo sapiens, UniProt O60896+P30988).
T2 sequence (P30988 whole entry): T1 sequence (P30988 whole entry)
T2 sequence (O60896 whole entry): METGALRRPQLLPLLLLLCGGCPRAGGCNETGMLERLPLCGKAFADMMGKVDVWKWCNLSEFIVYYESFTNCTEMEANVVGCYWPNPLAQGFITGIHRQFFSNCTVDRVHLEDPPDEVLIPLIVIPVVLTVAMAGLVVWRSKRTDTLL
As to the kind of experiment: Agonist activity at human amylin receptor expressed in BHK570 cells co-expressing RAMP3 assessed as increase in intracellular cAMP concentration incubated for 3 hrs in absence of albumin by CRE luciferase reporter gene assay. The class given is functional, cell-based.

Data set [17] relates to Rattus norvegicus. The data set is described as follows: Reduction in food intake in Sprague-Dawley rat at 3 nmol/kg measured 0 to 24 hrs post dose relative to control. The class given is functional. Set-up: scale not given: the % may be the effect or the level left.
Data set [18] in a line: Solubility in 100 mM bistrispropane buffer at pH 6.0 incubated for 18 hrs by UPLC analysis. Type of data set: physicochemical.
A short description of data set [19]: Solubility in 100 mM glycylglycine buffer at pH 4.0 incubated for 18 hrs by UPLC analysis. The class given is physicochemical.
For data set [20], the target named is T2, Amylin receptor AMY3; CALCR/RAMP3. The data set is described as follows: Displacement of [125I]-labeled rat amylin from human amylin receptor expressed in BHK tkts13 whole cells co-expressing RAMP3 incubated for 60 mins by scintillation proximity assay. Type of data set: cell-based. (In general: Loss of bound radioactivity is the signal in a displacement assay; it reports binding, not function.)

Consider `CC(C)C[C@H](NC(=O)[C@H](C)NC(=O)[C@H](C)NC(=O)[C@@H](NC(=O)[C@H](CO)NC(=O)[C@H](CC(C)C)NC(=O)[C@H](CCC(=O)O)NC(=O)[C@H](CO)NC(=O)[C@H](C)NC(=O)[C@H](CCC(=O)O)NC(=O)CCCCCCCCCCCCCCCCC(=O)O)[C@@H](C)O)C(=O)NCC(=O)N[C@@H](CCCNC(=N)N)C(=O)N[C@@H](CC(C)C)C(=O)N[C@@H](CO)C(=O)N[C@@H](C)C(=O)N[C@@H](CCC(=O)O)C(=O)N[C@@H](CC(C)C)C(=O)N[C@@H](Cc1cnc[nH]1)C(=O)N[C@@H](CCC(=O)O)C(=O)N[C@@H](CC(C)C)C(=O)N[C@@H](C)C(=O)N[C@H](C(=O)N[C@@H](CC(C)C)C(=O)N1CCC[C@H]1C(=O)N[C@@H](CCCNC(=N)N)C(=O)N[C@H](C(=O)N[C@@H](CCC(=O)O)C(=O)N[C@H](C(=O)NCC(=O)N1CCC[C@H]1C(=O)N[C@@H](CCC(=O)O)C(=O)N[C@@H](CO)C(=O)N1CCC[C@H]1C(N)=O)[C@@H](C)O)[C@@H](C)O)[C@@H](C)O` ({C18 diacid}-EASELSTAALGRLSAELHELATLPRTETGPESP-NH2), for which the solubility at 18 h in data set [1], in data set [2], in [4], in data set [10], in [13] and in data set [14] was at least 200 µM in each case. In addition, the solubility at 18 h in [18] and in data set [19] was at least 200 µM throughout. Moreover, the Activity in the data set with Rattus norvegicus [3] is reported as 83.2%; in the data set on Rattus norvegicus [5], 60.67%; in the data set with Rattus norvegicus [6], 88.9%; in the data set with Rattus norvegicus [7], 93.4%; with Rattus norvegicus [9], 90.6%; in the data set with Rattus norvegicus [17] it was 79%. Further, the EC50 at Calcitonin receptor was 5 pM; in data set [16] it was 8 pM. The half-life at 1600 µM in data set [8] and in data set [11] was 67 h in each case. Besides, the AUC/dose worked out at 712 kg·h/L in [12] and 732 kg·h/L in data set [15]. Moreover, the IC50 in data set [20] was 902 pM.
